Here are results for three compounds from EP0531958A1, “6-Aminoquinolones, their synthesis and their use as antibacterial agents” (MEDIOLANUM FARMACEUTICI S.P.A., priority 1991, dated 1993).

Common to all, as to format: cell-based
The subject of one test is Gram +. The experiment in a line: MIC test, average over the 5 gram-positive test germs. Conditions: 24 h. Here is the method: (§1) As to the antibacterial activity, there was determined the Least (Minimum) Inhibiting Concentration (MIC), by working according to the following operative conditions.
(§2) There were used suspensions of test germs (5 gram-positive and 15 gram-negative) having a known titre, kept freezed at -80°C and diluted, at the time of use, in peptonized water up to a concentration of 1-2.10⁷ cfu/ml.
(§3) A few mg of the products, according to the invention were weighed sufficient for preparing parent solutions in DMSO + NaOH (1N) containing 2560 µg/ml (64µg/ml/dish). From the thus prepared parent solutions there were prepared 12 serial dilutions (1:2) down to the concentration of 1.25 µg/ml.
(§4) 0.5 ml of the different dilutions of each product were distributed on dishes containing 19.5 ml of agarized medium (TSA), maintained in a fluid state at the temperature of 50°C. After slight stirring, the dishes were made to solidify and dry under hood (laminar flow).
(§5) The MIC tests (Least or "Minimum" Inhibiting Concentration) were performed by using a Steers multiwell inoculator having 36 wells, each containing 200 µl of bacterial suspension.
(§6) After inoculation, the dishes were placed into a thermostat and checked after 24 h of incubation at 35°C.
(§7) The MIC is defined as the lowermost product concentration (µg/ml) inhibiting the visible growth of the microorganisms.

Test [1] deals with Pseudomonas aeruginosa CNUR 4. The experiment in a line: MIC test, agar dilution with Steers multiwell inoculator. Conditions: CNUR4, TSA dishes, 24 h at 35°C, read-out: Minimum Inhibiting Concentration. Here is the method: as §1, §2, §3, §4, §5, §6, §7
In test [2] the test system is Klebsiella pneumoniae ATCC 10031. Described as above. Conditions: ATCC10031, TSA dishes, 24 h at 35°C, read-out: Minimum Inhibiting Concentration. On the procedure:
as §1, §2, §3, §4, §5, §6, §7

Test [3] concerns Staphylococcus epidermidis CPHL A2. Described as above. Conditions: CPHLA2, TSA dishes, 24 h at 35°C, read-out: Minimum Inhibiting Concentration. On the procedure:
as §1, §2, §3, §4, §5, §6, §7

The test system of test [4] is Acinebacter calcoloaceticus OSMPV 1130. The description is as above. Conditions: TSA dishes, 24 h at 35°C, read-out: Minimum Inhibiting Concentration. Here is the method: as §1, §2, §3, §4, §5, §6, §7
In a further test the test system is Escherichia coli 120. Described as above. Conditions: TSA dishes, 24 h at 35°C, read-out: Minimum Inhibiting Concentration. On the procedure: as §1, §2, §3, §4, §5, §6, §7
In test [5] the test system is Staphylococcus aureus MPR 5. Described as above. Conditions: MPR5, TSA dishes, 24 h at 35°C, read-out: Minimum Inhibiting Concentration. Here is the method:
as §1, §2, §3, §4, §5, §6, §7

Another test has as its system Escherichia coli CNUR 8. Described as above. Conditions: CNUR8, TSA dishes, 24 h at 35°C, read-out: Minimum Inhibiting Concentration. Here is the method: as §1, §2, §3, §4, §5, §6, §7
The subject of test [6] is Staphylococcus aureus ATCC 6538. The description is as above. Conditions: ATCC6538, TSA dishes, 24 h at 35°C, read-out: Minimum Inhibiting Concentration. On the procedure:
as §1, §2, §3, §4, §5, §6, §7

Test [7] has as its system Staphylococcus epidermidis HCF Berset C. The test is described as above. Conditions: TSA dishes, 24 h at 35°C, read-out: Minimum Inhibiting Concentration. On the procedure: as §1, §2, §3, §4, §5, §6, §7
Test [8] has as its system Enterobacter cloacae OMNF 1153. Described as above. Conditions: OMNF1153, TSA dishes, 24 h at 35°C, read-out: Minimum Inhibiting Concentration. Here is the method:
as §1, §2, §3, §4, §5, §6, §7

Another test has as its system Shighella enteritidis. Described as above. Conditions: TSA dishes, 24 h at 35°C, read-out: Minimum Inhibiting Concentration. On the procedure: as §1, §2, §3, §4, §5, §6, §7
The subject of test [9] is Escherichia coli ATCC 8739. The description is as above. Conditions: ATCC8739, TSA dishes, 24 h at 35°C, read-out: Minimum Inhibiting Concentration. Here is the method:
as §1, §2, §3, §4, §5, §6, §7

For test [10], the system named is Pseudomonas aeruginosa CNUR 2. Described as above. Conditions: CNUR2, TSA dishes, 24 h at 35°C, read-out: Minimum Inhibiting Concentration. On the procedure:
as §1, §2, §3, §4, §5, §6, §7

A further test concerns Escherichia coli ISF 432. The test is described as above. Conditions: ISF432, TSA dishes, 24 h at 35°C, read-out: Minimum Inhibiting Concentration. On the procedure: as §1, §2, §3, §4, §5, §6, §7
The test system of another test is Escherichia coli CNUR 1. Described as above. Conditions: CNUR1, TSA dishes, 24 h at 35°C, read-out: Minimum Inhibiting Concentration. On the procedure: as §1, §2, §3, §4, §5, §6, §7
The test system of test [11] is Providencia stuardii CNUR 5. The test is described as above. Conditions: CNUR5, TSA dishes, 24 h at 35°C, read-out: Minimum Inhibiting Concentration. On the procedure:
as §1, §2, §3, §4, §5, §6, §7

In test [12] the test system is Pseudomonas aeruginosa ATCC 9027. The description is as above. Conditions: ATCC9027, TSA dishes, 24 h at 35°C, read-out: Minimum Inhibiting Concentration. Here is the method: as §1, §2, §3, §4, §5, §6, §7
Test [13] has as its system Streptococcus facealis LEP Br. The description is as above. Conditions: TSA dishes, 24 h at 35°C, read-out: Minimum Inhibiting Concentration. On the procedure: as §1, §2, §3, §4, §5, §6, §7
The test system of test [14] is Enterobacter cloacae OMNF 1174. The description is as above. Conditions: OMNF1174, TSA dishes, 24 h at 35°C, read-out: Minimum Inhibiting Concentration. On the procedure: as §1, §2, §3, §4, §5, §6, §7
The test system of another test is Proteus vulgaris CNUR 6. The description is as above. Conditions: CNUR6, TSA dishes, 24 h at 35°C, read-out: Minimum Inhibiting Concentration. On the procedure: as §1, §2, §3, §4, §5, §6, §7
In the next test the test system is Gram -. The test can be described thus: MIC test, average over the 15 gram-negative test germs. Conditions: 24 h. On the procedure:
as §1, §2, §3, §4, §5, §6, §7

Setting [15] is: geometrical average of the MIC over the 5 Gram + strains, read-out: Geometrical Average.
[16] abbreviates: geometrical average of the MIC over the 15 Gram - strains, read-out: Geometrical Average.
[17] abbreviates: mean log of the MIC over the 15 Gram - strains, read-out: Log (converted).

Converted amounts (≈) assume the structure as drawn. Where two headings read alike, the source gives them in different places.

With `CC(C)(C)n1cc(C(=O)O)c(=O)c2cc(N)c(N3CCN(c4ccccn4)CC3)cc21` [Compound 48, 6-amino-1-terbutyl-7-[4-(2-pyridyl)-1-piperazinyl]-1,4-dihydro-4-oxo-quinoline carboxylic acid], the MIC in the test on Gram + (setting [15]) is 2 µg/mL; in the test with Gram + (read-out: Log (converted)), 2 µg/mL (≈ 4.74 µM); in test [1], 128 µg/mL (≈ 304 µM); in test [2], 0.25 µg/mL (≈ 0.593 µM); in test [3], 1 µg/mL (≈ 2.37 µM); in test [4] it was 1 µg/mL (≈ 2.37 µM). Also, the MIC is 16 µg/mL (≈ 38 µM) in the test on Escherichia coli 120; 1 µg/mL (≈ 2.37 µM) in [5]; 16 µg/mL (≈ 38 µM) in the test with Escherichia coli CNUR 8; 1 µg/mL (≈ 2.37 µM) in test [6]; 2 µg/mL (≈ 4.74 µM) in test [7]; 128 µg/mL (≈ 304 µM) in [8]. The MIC in the test on Shighella enteritidis worked out at 64 µg/mL (≈ 152 µM); in test [9] it was 0.5 µg/mL (≈ 1.19 µM); in test [10], 128 µg/mL (≈ 304 µM); in the test on Escherichia coli ISF 432, 0.5 µg/mL (≈ 1.19 µM); with Escherichia coli CNUR 1, 64 µg/mL (≈ 152 µM); in [11], 128 µg/mL (≈ 304 µM). For the same compound, the MIC in test [12] was 128 µg/mL (≈ 304 µM); in [13], 16 µg/mL (≈ 38 µM); in test [14], 64 µg/mL (≈ 152 µM); in the test on Proteus vulgaris CNUR 6, 128 µg/mL (≈ 304 µM); in the test with Gram - (setting [16]), 19.2 µg/mL (≈ 45.7 µM); in the test with Gram - (setting [17]), 19.2 µg/mL (≈ 45.6 µM).

For the compound `Nc1cc2c(=O)c(C(=O)O)cn(C3CC3)c2cc1N1CCSCC1` [Compound 15], the MIC was 1.32 µg/mL in the test on Gram + (setting [15]); 1.32 µg/mL (≈ 3.82 µM) in the test on Gram + (read-out: Log (converted)); 128 µg/mL (≈ 371 µM) in [1]; 0.03 µg/mL (≈ 0.0868 µM) in [2]; 1 µg/mL (≈ 2.89 µM) in test [3]; 1 µg/mL (≈ 2.89 µM) in test [4]. Further, the MIC in the test on Escherichia coli 120 came out at 0.12 µg/mL (≈ 0.347 µM); in [5], 0.5 µg/mL (≈ 1.45 µM); in the test with Escherichia coli CNUR 8, 0.12 µg/mL (≈ 0.347 µM); in test [6], 0.5 µg/mL (≈ 1.45 µM); in test [7], 2 µg/mL (≈ 5.79 µM); in [8] it was 0.5 µg/mL (≈ 1.45 µM). Besides, the MIC in the test on Shighella enteritidis amounted to 0.5 µg/mL (≈ 1.45 µM); in test [9] it was 0.03 µg/mL (≈ 0.0868 µM); in test [10] it was 16 µg/mL (≈ 46.3 µM); in the test on Escherichia coli ISF 432, 0.03 µg/mL (≈ 0.0868 µM); in the test with Escherichia coli CNUR 1, 0.5 µg/mL (≈ 1.45 µM); in test [11], 1 µg/mL (≈ 2.89 µM). Besides, the MIC was 2 µg/mL (≈ 5.79 µM) in test [12]; 8 µg/mL (≈ 23.2 µM) in [13]; 0.5 µg/mL (≈ 1.45 µM) in [14]; 128 µg/mL (≈ 371 µM) in the test on Proteus vulgaris CNUR 6; 0.748 µg/mL (≈ 2.17 µM) with Gram - (setting [16]); 0.748 µg/mL (≈ 2.17 µM) with Gram - (setting [17]).

`CN1CCN(c2nc3c(c(N)c2N)c(=O)c(C(=O)O)cn3C2CC2)CC1` [Compound 42]: the MIC is 4 µg/mL (≈ 11.2 µM) in the test with Gram + (read-out: Log (converted)); 128 µg/mL (≈ 357 µM) in test [1]; 0.06 µg/mL (≈ 0.167 µM) in test [2]; 4 µg/mL (≈ 11.2 µM) in test [3]; 4 µg/mL (≈ 11.2 µM) in [4]; 0.25 µg/mL (≈ 0.698 µM) in the test on Escherichia coli 120. Besides, the MIC came to 2 µg/mL (≈ 5.58 µM) in test [5]; 0.25 µg/mL (≈ 0.698 µM) in the test on Escherichia coli CNUR 8; 2 µg/mL (≈ 5.58 µM) in test [6]; 4 µg/mL (≈ 11.2 µM) in [7]; 1 µg/mL (≈ 2.79 µM) in test [8]; 0.5 µg/mL (≈ 1.4 µM) with Shighella enteritidis. Further, the MIC was 0.06 µg/mL (≈ 0.167 µM) in test [9]; 16 µg/mL (≈ 44.6 µM) in test [10]; 0.06 µg/mL (≈ 0.167 µM) in the test with Escherichia coli ISF 432; 1 µg/mL (≈ 2.79 µM) in the test on Escherichia coli CNUR 1; 4 µg/mL (≈ 11.2 µM) in [11]; 8 µg/mL (≈ 22.3 µM) in test [12]. In addition, the MIC in [13] was 16 µg/mL (≈ 44.6 µM); in [14], 1 µg/mL (≈ 2.79 µM); with Proteus vulgaris CNUR 6 it was 64 µg/mL (≈ 179 µM); in the test on Gram - (setting [16]), 1.37 µg/mL (≈ 3.83 µM); in the test with Gram - (setting [17]), 1.37 µg/mL (≈ 3.82 µM).
